Laboratory results reported in US6852333B1, “Agents and methods for promoting production gains in animals” (The Horticulture and Food Research Institute of New Zealand …, priority 1999, dated 2005).

How the values were obtained:
[1] = tested on: faecal egg count (parasites); assay: Nitric oxide donor and anthelmintic efficacy, time until faecal egg count rose to around 600 (Experiment 15); format: in vivo, sheep; conditions: 0.0001 g per kg liveweight oral with anthelmintic every four months
Text: In a separate experiment 20 sheep (mixed male and females) received standard anthelmintic treatments similar to experiments 3 and 4, with anthelmintics and treatments given every four months. Treatment in 10 of these animals consisted of the anthelmintic dosing and S-nitroso-N-acetylpenicillamine, a nitric oxide donor at a dose of 0.0001 g per kg liveweight in an oral form. The other 10 received the anthelmintic and a glucose control. Anthelmintic successfulness in terms of time from treatment until faecal egg count rose to around 600 as described in experiments 3 and 4 was examined. […] FIG. 22 illustrates this.

[2] = Broiler chicken trial: weight and feed conversion ratio with SAC in feed (Experiment 7); format: in vivo, broiler chickens
Text: This work aimed to investigate the effectiveness of an antistress containing composition or a stress alleviating composition (conveniently referred to as “SAC”), ([…], vitamin C and long chain amino acid mix) versus a calorie adjusted control, in lowering the physiological responses to stress and promoting growth in an intensive production systems (broiler chickens). In addition, the effect of the SAC agent in combination with existing industry feed additives (Performance enhancers: antibiotics and indigestible carbohydrates (oligosaccharides) was investigated in broiler chickens.
432 day-old male broiler chicks were used in the experiment carried out over six weeks in a poultry research unit. Chicks were assigned at random to one of 12 groups: • Group 1—Control 32° C. (n=36) • Group 2—Control 28° C. (n=36) • Group 3—Experimental Formulation A 32° C. (n=36) • Group 4—Experimental Formulation A 28° C. (n=36) • Group 5—Experimental Formulation B 28° C. (n=36) • Group 6—Experimental Formulation C 28° C. (n=36) • Group 7—Performance Enhancer 32° C. (n=36) • Group 8—Performance Enhancer 28° C. (n=36) • Group 9—Oligosaccharide 32° C. (n=36) • Group 10—Oligosaccharide 28° C. (n=36) • Group 11—Experimental Formulation A+Performance Enhancer 32° C. (n=36) • Group 12—Experimental Formulation A+Oligosaccharide 32C (n=36)
Once selected, groups of 6 birds were housed per cage in heated brooders (i.e. One treatment group (36 birds) per 6 cages). Each group had access to pelleted feed (NRM New Zealand) in excess of requirements during the trial conforming to standard poultry use Ross broiler specification), and water was freely available. During the manufacturing of the feed the following treatments were included.
SAC Agent (2-methyl-1,2-di-3-pyridyl-1-propanone, vitamin C, valine, isoleucine and leucine mixture), mixed with a glucose-based polymer carrier (0.01 g drug to 1 g of carrier) before addition to the feed in the following doses. • Formulation A (per kg feed): • 0.01 g 2-methyl-1,2-di-3-pyridyl-1-propanone • 0.1 g Vitamin C • 5 mg Valine, isoleucine and leucine • Formulation B (per kg feed): • 0.005 g 2-methyl-1,2-di-3-pyridyl-1-propanone • 0.05 g Vitamin C • 0.5 mg Valine, isoleucine and leucine • Formulation C (per kg feed): • 0.001 g 2-methyl-1,2-di-3-pyridyl-1-propanone • 0.01 g Vitamin C • 0.1 mg Valine, isolcucine and leucine • Performance Enhancers: • (Avilamycin (Surmax): Elanco Animal Health, Indianapolis, USA) • Dose: <0.2 g/kg (antibiotic concentration of 0.1 (g/ml). • Mannan oligosaccharide—indigestible carbohydrate (Bio-Mos: Alltech, Inc.USA) • Dose: 1 g/kg
Daily feed intake was recorded for each group of birds, and all birds were weighed weekly.
Birds were either kept at optimum temperature levels (32° C.) or exposed to cold stress (28° C.) from day 1 until day 14 of the trial. After 14 days they were removed to larger raised horizontal cages where all groups were maintained at 21° C. The birds remained in these cages for the remainder of the trial after which time they were slaughtered. After slaughter, meat from 6 birds per group was analysed for fat composition.

faecal count (parasites) = assay: Increase of anthelmintic effect, monthly faecal count (Experiment 10); format: in vivo, sheep; conditions: anthelmintics and agents given every four months; faecal count each month
Description: In a further experiment similar to that described in experiments 3 and 4 the increased anthelmintic effect from vitamin C, isoleucine, valine and leucine alone or in combination with metyrapone, and metyrapone and pyrrolopyrimidine was tested. Anthelmintics and these agents were given every four months and faecal count calculated each month in between treatments.

[3] = Dose response and dose composition, growth promotant effects (Experiment 9); format: in vivo, sheep, poultry, pigs and rats; conditions: oral three times over six weeks
Description: (§1) In four different species (sheep, poultry, pigs and rats) different dosages of the compound metyrapone alone or in combination with vitamin C, isoleucine, leucine, valine were tested for growth promotant effects.
(§2) These mixtures were administered by oral routes three times over six weeks and a control group was administered a glucose mix at the same time (calorie equivalent). Animal growth in terms of liveweight gains were measured over periods of time, as was feed consumed.

[4] = Dose response of metyrapone, growth promotant effects in pigs (Experiment 9); format: in vivo; conditions: oral three times over six weeks
Description: as §1, §2

[5] = Reproductive success of ewes (Experiment 11); format: in vivo, sheep; conditions: over 3 seasons following original metyrapone treatments, vs control group
Text: Female sheep (20 ewes) chosen from original experiments in experiments 4, 5 and 6 were studied for seasonal reproductive success for up to 3 seasons following the original metyrapone treatments. These animals received no further metyrapone treatments and were kept in a flock with a similar selected group of 20 control age and weight matched counterparts that had not received metyrapone treatment.
In a separate experiment using the different sheep with no previous exposure to treatments, 20 age and bodyweight matched ewes were run as a flock. Ten of these ewes received three treatments of metyrapone and vitamin C, isoleucine, leucine and valine at a dosage of 0.001 g metyrapone/0.01 g vitamin c, 0.0005 g each of valine, isoleucine and leucine per kg liveweight in an oral form without anthelmintics. These three treatments occurred one month prior to conception, in the first and third trimester of pregnancy. The remaining ten ewes received a similar handling and control administration of a glucose-amino acid mixture.

[6] = Growth rate of sheep given metyrapone with anthelmintic treatment (Experiments 3 and 6); format: in vivo; conditions: no additional stresses; metyrapone 5 mg/kg at the time of anthelmintic treatment
Text: In a first series of experiments, sheep were divided into pairs from initial twins. All the animals were grazed together, on the same paddocks, from pairing through to the end of the trial. They were thus exposed to the same potential parasite load and the same access to feed and water. The animals were also genetically similar (i.e at least one shared parent). Experiments were begun when the animal was 3 months of age. One half of the pairings were rounded up once a week and run through a race (control group). Any normal farm maintenance that was needed was done at this time, so that the time that animals may have been held was variable from week to week but consistent across the entire group and with the experimental group (see below). Faecal samples were also collected and both total egg and nematode egg counts calculated, and visual inspection for ectoparasites made. Animals were subject to the same anthelmintic treatments consisting of three pour-on (Ivomec pour on, MSD 1 ml per 50 kg), three oral (Endex, Novartis—1 ml per 5 kg) and three injectable treatments (levamisole. 7.5 mg/kg) per year (every four months). In a similar set of experiments to experiment 1, the animals in the chronic stress group also all received a chemical substance metyrapone (in an oral form at 5 mg/kg live weight) at the time of anthelmintic treatment. […]

nematode = assay: Anthelmintic efficacy (faecal egg / nematode counts) in stressed sheep given metyrapone (Experiments 3-5); format: in vivo
Text: In a first series of experiments, sheep were divided into pairs from initial twins. All the animals were grazed together, on the same paddocks, from pairing through to the end of the trial. They were thus exposed to the same potential parasite load and the same access to feed and water. The animals were also genetically similar (i.e at least one shared parent). Experiments were begun when the animal was 3 months of age. One half of the pairings were rounded up once a week and run through a race (control group). Any normal farm maintenance that was needed was done at this time, so that the time that animals may have been held was variable from week to week but consistent across the entire group and with the experimental group (see below). Faecal samples were also collected and both total egg and nematode egg counts calculated, and visual inspection for ectoparasites made. The other half of the pairings (chronic stress group) were exposed to the same handling […] (consistent with the single weekly procedure above) and in addition to this were run around a paddock by either a human or dog (alternating) for 10 minutes. In this manner a mild, chronic, handling stress was imposed on these animals. Races and handling facilities were cleaned between animal movements to avoid any risk of parasitic contamination. Animals were subject to the same anthelmintic treatments consisting of three pour-on (Ivomec pour on, MSD 1 ml per 50 kg), three oral (Endex, Novartis—1 ml per 5 kg) and three injectable treatments (levamisole. 7.5 mg/kg) per year (every four months). In a similar parallel experiment the control group was identical and the paired group to this control (acute stress) received identical treatment to the control group and in addition an acute stress one day prior to anthelmintic treatment. This consisted of chasing the group three times during the day with a dog for 15 min duration each time. The faecal egg count and ectoparasite assessment was the same in both groups at time of the first experimental anthelmintic treatment. […]

[7] = Stress relieving compounds given with anthelmintic, growth of ewes over 12 months (Experiment 13); format: in vivo, sheep; conditions: for effect on growth compared to control animals (FIG. 20): ewes treated every 2 months with anthelmintic plus agent; for effect on growth: alone or added to metyrapone
Description: […] A further 7 ewes received either astressin 0.0005 g or astressin and metyrapone (astressin at 0.0005 g and metyrapone at 0.001 g) and the vitamin C and amino acid mixture as above.
Bodyweight was measured monthly and animals were treated equivalently in all other aspects.

[8] = week 2, end of the cold stress period 28° C.
[9] = week 3, after the stressor was removed (21° C.)
[10] = week 4, after the stressor was removed (21° C.)

Molecule: CC(=O)N[C@H](C(=O)O)C(C)(C)SN=O (racemic) [S-nitroso-N-acetylpenicillamine]
- effectiveness of anthelmintic (time until faecal egg count rose to around 600) [1]: better effectiveness of anthelmintic than control animals

Molecule: COC[C@H]1O[C@@H](OC2OC[C@@H]3O[C@]4(O[C@H]3[C@H]2OC(=O)C(C)C)O[C@H](C)[C@@](O)(C(C)=O)[C@@H]2OCO[C@H]24)[C@@H](OC)[C@@H](O)[C@@H]1O[C@@H]1O[C@H](C)[C@H](OC)[C@H](O[C@H]2C[C@@]3(C)OC4(C[C@@H](O)[C@H](O[C@H]5C[C@@H](O)[C@H](OC(=O)c6c(C)c(Cl)c(O)c(Cl)c6OC)[C@@H](C)O5)[C@@H](C)O4)O[C@@H]3[C@@H](C)O2)[C@H]1O (some centres unmarked) [antibiotic performance enhancer, Avilamycin]
- rate of growth in comparison to birds given the SAC ([2]; exposed to cold stress, during cold stress and afterwards): lower rate of growth
- weight heavier than control birds ([2]; week 1, cold stress 28° C.): 3.5 g
- weight heavier than control birds, percent ([2]; week 1, cold stress 28° C.): 2.0%
- weight heavier than control birds [2, 8]: 6.3 g
- weight heavier than control birds, percent [2, 8]: 1.3%
- weight heavier than control birds [2, 9]: 42.6 g
- weight heavier than control birds, percent [2, 9]: 4.5%
- weight heavier than control birds [2, 10]: 35.2 g
- weight heavier than control birds, percent [2, 10]: 2.2%

Molecule: CC(C)(C(=O)c1cccnc1)c1cccnc1 [metyrapone, 2-methyl-1,2-di-3-pyridyl-1-propanone]
- anthelmintic effectiveness (faecal count) (faecal count (parasites)): more effective than with the anthelmintic alone
- % gain in production with increase in dose ([3]; all species except pigs): an increase in gain was seen with an increase in dose of metyrapone levelling out
- growth (liveweight gain) ([3]; all species): increased growth
- % gain in production with dose [4]: a low and a high dose were effective however a mid-range dose did not produce the same gains
- birthweight of lambs [5]: slightly greater than seen in the control group
- net gain, growth over the year (mean) [6]: 18 kg
- differences between acute stress and control groups (nematode; acute stress group receiving metyrapone oral 5 mg/kg with anthelmintic): no differences were seen between the acute and control groups
- efficacy of anthelmintics compared with the non-stressed groups (nematode; chronic stress group, metyrapone oral 5 mg/kg live weight at the time of anthelmintic treatment): same efficacy of anthelmintics as the non-stressed groups
- time until nematode counts exceeded recommended number for dosing (nematode; one treatment including metyrapone, chronic and acute stressed animals vs control group): no differences to the control group
- Kg of Growth in 12 months ([7]; 0.0001 g/kg metyrapone): 13 ± 3 kg
- Kg of Growth in 12 months ([7]; 0.0001 g/kg metyrapone + control): 14 ± 3 kg
- effect on growth compared to control animals (FIG. 20) [7]: larger effect

Molecule: CC#C[C@]1(O)CC[C@H]2[C@@H]3CCC4=CC(=O)CCC4=C3[C@@H](c3ccc(N(C)C)cc3)C[C@@]21C [mifepristone]
- Kg of Growth in 12 months ([7]; 0.0001 g/kg mifepristone): 4 ± 4 kg
- Kg of Growth in 12 months ([7]; 0.0005 g/kg mifepristone): 8 ± 2 kg
- effect on growth compared to control animals (FIG. 20) [7]: small positive effect
- effect on growth ([7]; mifepristone dose 0.0001 g/kg): no effect compared to control
- effect on growth ([7]; mifepristone dose 0.0005 g/kg): small increase in growth over control treatments

Molecule: CCCN(CCC)C(=O)C(CCC(=O)O)NC(=O)c1ccccc1 (centres unmarked) [proglumide]
- effect on growth compared to control animals (FIG. 20) [7]: small positive effect

Molecule: astressin
- Kg of Growth in 12 months ([7]; 0.0005 g/kg astressin): 10 ± 4 kg
